Where no end group is shown, it is not given here.
Columns and labels:
[1] = tested on: S. epidermidis GISE strain; assay: Rat subcutaneous Dacron graft infection model, GISE strain; type: in vivo; settings: for Bacterial concentration, GISE: 2×10^7 bacteria, explanted day 7; for Bacterial concentration, GISE / Bacterial load on graft, GISE: mean ± SD; for Bacterial load on graft, GISE: Table 3A S. epidermidis
Experimental: (§1) Rats (Wistar adult males (300-350 g), n=15/experimental group) were anaesthetized, hair on their back shaved and the skin cleansed with 10% povidone-iodine solution. A subcutaneous pocket was made on the side of the median line by a 1.5 cm incision. Aseptically, 1 cm^2 sterile collagen-sealed Dacron graft (Albograft™, Sorin Biomedica Cardio, S.p.A., Saluggi VC, Italy) was implanted into the pocket. […] Pockets were closed by skin clips and 1 ml sterile saline solution with or without 2×10^7 bacteria was inoculated onto the graft surface using a tuberculin syringe to create a subcutaneous fluid-filled pocket. Some of the animals that had grafts soaked only with RIP or saline were injected intraperitoneally with antibiotics (cefazolin 30 mg/kg, imipenem 30 mg/kg, teicoplanin 10 mg/kg, levofloxacin 10 mg/kg). Grafts were explanted 7 days following implantation.
(§2) The explanted grafts were placed in sterile tubes, washed in sterile saline solution, placed in tubes containing 10 ml of phosphate-buffered saline solution and sonicated for 5 min to remove the adherent bacteria from the grafts. Quantitation of viable bacteria was performed by culturing serial 10-fold dilutions (0.1 ml) of the bacterial suspension on blood agar plates. All plates were incubated at 37° C. for 48 hr and evaluated for the presence of the strain. Bacteria were quantitated by counting the number of colony forming unites (CFU) per plate. To determine if bacteria were efficiently removed from the graft, washed and sonicated grafts were observed under a Nikon Eclipse E 600 optical microscope (Nikon Y-THS, Japan).
(§3) Quantitative culture results of the in vivo experiments were presented as mean+SD of the mean. Comparisons of the results were performed by the analysis of variance (ANOVA) on the log-transformed data. Statistical analysis was performed for in vitro adhesion assays using Student's t-Test by Microsoft Excel (Microsoft, Wash.). Significance was accepted when the P value was <0.05.
(§4) To test if RIP can prevent graft-associated infections, Dacron grafts were coated with or without RIP, and with or without various types of antibiotics (for local prophylaxis experiments). Coated grafts were implanted in rats, bacteria injected into the implants, implants removed after a week, and bacterial load determined. Alternatively, Dacron grafts were first coated with RIP, bacteria injected, and antibiotics were administered by the intraperitoneal route (for parenteral prophylaxis experiments). As a negative control, grafts were implanted without local or parenteral RIP/antibiotics prophylaxis and no bacteria were injected. As a positive control, grafts were implanted, bacteria were injected, but no RIP/antibiotics prophylaxis was given.
Animals (15/group) received a Dacron-graft implanted in a subcutaneous pocket. Graft was subsequently infected with either S. epidermidis (tested on MSSE, MRSE and GISE) or with S. aureus (tested on MSSA, MRSA and GISA). […]

[2] = tested on: S. epidermidis MRSE strain; assay: Rat subcutaneous Dacron graft infection model, MRSE strain; type: in vivo; settings: for Bacterial concentration, MRSE: 2×10^7 bacteria, explanted day 7; for Bacterial concentration, MRSE / Bacterial load on graft, MRSE: mean ± SD; for Bacterial load on graft, MRSE: Table 3A S. epidermidis
Experimental: as §1, §2, §3, §4
(§5) Animals (15/group) received a Dacron-graft implanted in a subcutaneous pocket. Graft was subsequently infected with either S. epidermidis (tested on MSSE, MRSE and GISE) or with S. aureus (tested on MSSA, MRSA and GISA). The Dacron-graft prior to implantation was soaked in saline with or without 20 mg/l of RIP and some animals received […] of RIP i.p. as a prophylaxis treatment.

S. aureus GISA = assay: Rat subcutaneous Dacron graft infection model, GISA strain; type: in vivo; settings: Table 3B S. aureus, mean ± SD
Experimental: as §1, with “implantation. Estimated RIP that adhered to graft was 10-26 μg.” for “implantation.”
as §2, §5

S. aureus MSSA = assay: Rat subcutaneous Dacron graft infection model, MSSA strain; type: in vivo; settings: Table 3B S. aureus, mean ± SD
Experimental: as §1, with “implantation. Estimated RIP that adhered to graft was 10-26 μg.” for “implantation.”
as §2, §5

[3] = tested on: S. epidermidis adherence to HaCat cells; assay: Adherence of FITC-labeled S. epidermidis to HaCat cells; type: cell-based; settings: 5 μg RIP, 10^6 CFU, 30 min at 37° C.
Experimental: FIG. 14A is a graph depicting adherence in the presence of RIP (RIP+) and in the absence of RIP (RIP−). FITC-labeled bacterial cells (10^6 CFU) were applied to microtiter plates containing confluent 10^4 HaCat cells, in the presence or absence of 5 μg RIP (RIP+/−). Cells were incubated for 30 min at 37° C., washed in PBS and fluorescence at 485/530 nm was determined.
Virulence of S. epidermidis is also often associated with their ability to adhere to host cells and to form biofilm on medical devices. To test whether RIP can prevent S. epidermidis from colonizing host cells and therefore be a candidate for therapy and prevention, FITC-labeled S. epidermidis were incubated in the presence or absence of RIP with a confluent layer of keratinocytes (HaCat cells) for 30 min.

S. aureus Smith Diffuse = settings: mice; cited from earlier work
S. aureus LS-1 = settings: mice; cited from earlier work
S. aureus 8325-4 = settings: rabbits; cited from earlier work
[4] = tested on: S. aureus Newbould 305, AE-1, and environmental infections; settings: cows; cited from earlier work
[5] = tested on: bacterial adhesion to HEp2 cells; settings: cited from earlier work
[6] = A. Local prophylaxis: graft soaked 20 min in RIP 10 mg/l and/or antibiotic (mupirocin 100, quinupristin-dalfopristin 50, levofloxacin 30, rifampin 5 mg/l), rats
[7] = B. Parenteral prophylaxis: antibiotic intraperitoneally (cefazolin 30, imipenem 30, teicoplanin 10, levofloxacin 10 mg/kg), RIP as 10 mg/l graft soak, rats
[8] = RIP local (graft soaked in 20 mg/l RIP)
[9] = RIP parenteral (10 mg/l RIP i.p.)
[10] = peptide-soaked/coated Dacron graft (RIP 10 mg/l), no antibiotic, rats, day 7

YSPWTNF(—NH2) (YSPWTNF-NH2) [RIP]
Bacterial concentration, GISE [1, 6]: 6.2 ± 2.4 ×10^4 CFU/ml
Bacterial concentration, GISE [1, 7]: 6.2 ± 2 ×10^4 CFU/ml
Bacterial load on graft, GISE [1, 8]: 0.46 ± 0.13 ×10^4 CFU/ml
Bacterial load on graft, GISE ([1]; RIP local + RIP parenteral): 0.00 ± 0 ×10^4 CFU/ml
Bacterial load on graft, GISE [1, 9]: 0.31 ± 0.6 ×10^4 CFU/ml
Quantitative culture results of explanted graft, GISE strain [1, 10]: 6.2×10^4±2.0×10^4 CFU/ml
RIP graft treatment inhibiting bacteria better than parenteral antibiotics prophylaxis ([1]; rats inoculated with GISE): 10 to 100 fold
Bacterial concentration, MRSE [2, 6]: 0.74 ± 0.18 ×10^4 CFU/ml
Bacterial concentration, MRSE [2, 7]: 0.74 ± 0.18 ×10^4 CFU/ml
Bacterial load on graft, MRSE [2, 8]: 0.087 ± 0.023 ×10^4 CFU/ml
Bacterial load on graft, MRSE ([2]; RIP local + RIP parenteral): 0.00 ± 0 ×10^4 CFU/ml
Bacterial load on graft, MRSE [2, 9]: 0.052 ± 0.017 ×10^4 CFU/ml
Quantitative culture results of explanted graft, MRSE strain [2, 10]: 7.4×10^3±1.8×10^3 CFU/ml
Bacterial load on graft, GISE (S. aureus GISA; [8]): 0.70 ± 0.28 ×10^4 CFU/ml
Bacterial load on graft, GISE (S. aureus GISA; RIP local + RIP parenteral): 0.00 ± 0 ×10^4 CFU/ml
Bacterial load on graft, GISE (S. aureus GISA; [9]): 0.49 ± 0.11 ×10^4 CFU/ml
Bacterial load on graft, MSSE (S. aureus MSSA; [8]): 0.55 ± 0.19 ×10^4 CFU/ml
Bacterial load on graft, MSSE (S. aureus MSSA; RIP local + RIP parenteral): 0.00 ± 0 ×10^4 CFU/ml
Bacterial load on graft, MSSE (S. aureus MSSA; [9]): 0.045 ± 0.009 ×10^4 CFU/ml
S. epidermidis adherence to HaCat cells [3]: significantly (p<0.05) reduced
Suppressing S. aureus infection: cellulitis (S. aureus Smith Diffuse): extremely effective
Suppressing S. aureus infection: septic arthritis (S. aureus LS-1): extremely effective
Suppressing S. aureus infection: keratitis (S. aureus 8325-4): extremely effective
Suppressing S. aureus infection: mastitis [4]: extremely effective
Bacterial adhesion to eukaryotic cells [5]: decreased

From patent US8067015B2, “Methods and compositions for the treatment and prevention of Staphylococcus and other bacterial infections” (priority 1997, dated 2011)
